From patent publication US11040984B2, “Quinazoline compound for EGFR inhibition” (MEDSHINE DISCOVERY INC., priority 2016, dated 2021)
Counter-ions that a name gives are not always drawn.

Tests used:
PC-9 (Δ19del) cells = test: Anti-PC-9 cell proliferation (Cell-Titer Glo, 72 hours); format: cell-based; details: Homo sapiens, PC-9 cells, read-out: Anti-PC-9 (Δ19del) cell proliferative activity IC50
Description: RPMI 1640 medium, FBS fetal bovine serum and trypsin-EDTA were purchased from Giboco. DPBS was purchased from Corning, penicillin/streptomycin solution from Hyclone, Cell-Titer Glo reagent from Promega (1 kit, Cat. No. G7571). PC-9 was built by WuXi itself. Plate reader: Envision (Perkin Elmer).
(§1) 45 μL Culture media was added to columns 1, 2, 24 of a 384-well plate, repectively. The cell suspension was separated by Multi-drop, 45 μL (1000 cells) per well, which was placed and cultured in an incubator overnight. A compound was added to the source plate according to the requirement of Echo liquid-separation. The compound in the source plate was added to the interplate and diluted to an intermediate concentration, then the compound in the source plate and the interplate was added to the cell plate, and the cells were further cultured in the incubator for 72 hours. After 72 hours, Cell-Titer Glo reagent and cells were taken out and equilibrated at room temperature for 30 minutes. 25 μL Cell-Titer Glo reagent was separated into the cells in 384-well plate by Multi-drop, shaken at medium speed for 3 minutes, centrifuged at 1000 rpm for 2 minutes, and kept for 10 minutes. Envision was used to read the plate (Luminescence).

A431 cells = test: Anti-A431 cell proliferation; format: cell-based; details: Homo sapiens, A-431, read-out: Anti-A431 cell proliferative activity IC50
Description: as §1

EGFR WT = EGFR WT (Homo sapiens (Human), UniProt P00533); test: Kinase assay (HTRF KinEASE TK), wild-type EGFR enzyme; format: biochemical
Source text: (§2) Detection of inhibitory effects of compounds on enzymatic activities of EGFR WT, EGFR [L858R] and EGFR [d746-750]
(§3) EGFR WT (Invitrogen, Cat. No PR7295B), EGFR [L858R] (Invitrogen, Cat. No PR7447A), EGFR [d746-750](Invitrogen, Cat. No PV6179), ATP (Sigma, Cat. No. A7699-1G), DMSO (Sigma, Cat. No. D2650), DTT (Sigma, Cat. No. 43815), 384-well plates compound dilution plates (Greiner, Cat. No. 781280), 384-well plates_test plates (Perkin Elmer, Cat. No. 6007299), HTRF KinEASE TK Kit (Cisbio, Cat. No. 62TKOPEB), MgCl2 (Sigma, Cat. No. M1028), Orthovanadate (Sigma, Cat. No. S6508), BSA (Sigma, Cat. No. A7030), HEPES (Life technology, Cat. No. 11344-041)
(§4) The final test concentrations of the test compounds ranged from 10 μM to 0.17 nM, with serial 3-fold dilutions and 11 gradient concentrations.
(§5) Buffer formulation: a buffer consisted of 50 mM HEPES (pH 7.5), 0.01% BSA, 5 mM MgCl2, 0.1 mM Orthovanadate. After the buffer was formulated, an enzyme and a substrate were mixed with pre-diluted compounds of varying concentrations, and placed at room temperature for 15 minutes. The reaction was initiated by adding ATP and incubated at room temperature for 60 minutes (wherein negative and positive controls were set up). The 10 μL reaction system consisted of a 2.5 μL compound, a 5 μL mixture of enzyme and substrate, and 2.5 μL ATP. After the reaction was complete, antibodies were added to test, the detection was performed with Evnvision after incubation at room temperature for 60 minutes, and data were collected. Data analysis and simulation were performed using XLfit5 software.

EGFR [d746-750] = EGFR [d746-750] (Homo sapiens (Human), UniProt P00533, DEL746-750); test: Kinase assay (HTRF KinEASE TK), EGFR exon 19 deletion enzyme; format: biochemical
Source text: as §2, §3, §4, §5

EGFR [L858R] = EGFR [L858R] (Homo sapiens (Human), UniProt P00533, L858R); test: Kinase assay (HTRF KinEASE TK), EGFR L858R enzyme; format: biochemical
Source text: as §2, §3, §4, §5

Sequence of EGFR [L858R] (P00533 25-1210 L858R): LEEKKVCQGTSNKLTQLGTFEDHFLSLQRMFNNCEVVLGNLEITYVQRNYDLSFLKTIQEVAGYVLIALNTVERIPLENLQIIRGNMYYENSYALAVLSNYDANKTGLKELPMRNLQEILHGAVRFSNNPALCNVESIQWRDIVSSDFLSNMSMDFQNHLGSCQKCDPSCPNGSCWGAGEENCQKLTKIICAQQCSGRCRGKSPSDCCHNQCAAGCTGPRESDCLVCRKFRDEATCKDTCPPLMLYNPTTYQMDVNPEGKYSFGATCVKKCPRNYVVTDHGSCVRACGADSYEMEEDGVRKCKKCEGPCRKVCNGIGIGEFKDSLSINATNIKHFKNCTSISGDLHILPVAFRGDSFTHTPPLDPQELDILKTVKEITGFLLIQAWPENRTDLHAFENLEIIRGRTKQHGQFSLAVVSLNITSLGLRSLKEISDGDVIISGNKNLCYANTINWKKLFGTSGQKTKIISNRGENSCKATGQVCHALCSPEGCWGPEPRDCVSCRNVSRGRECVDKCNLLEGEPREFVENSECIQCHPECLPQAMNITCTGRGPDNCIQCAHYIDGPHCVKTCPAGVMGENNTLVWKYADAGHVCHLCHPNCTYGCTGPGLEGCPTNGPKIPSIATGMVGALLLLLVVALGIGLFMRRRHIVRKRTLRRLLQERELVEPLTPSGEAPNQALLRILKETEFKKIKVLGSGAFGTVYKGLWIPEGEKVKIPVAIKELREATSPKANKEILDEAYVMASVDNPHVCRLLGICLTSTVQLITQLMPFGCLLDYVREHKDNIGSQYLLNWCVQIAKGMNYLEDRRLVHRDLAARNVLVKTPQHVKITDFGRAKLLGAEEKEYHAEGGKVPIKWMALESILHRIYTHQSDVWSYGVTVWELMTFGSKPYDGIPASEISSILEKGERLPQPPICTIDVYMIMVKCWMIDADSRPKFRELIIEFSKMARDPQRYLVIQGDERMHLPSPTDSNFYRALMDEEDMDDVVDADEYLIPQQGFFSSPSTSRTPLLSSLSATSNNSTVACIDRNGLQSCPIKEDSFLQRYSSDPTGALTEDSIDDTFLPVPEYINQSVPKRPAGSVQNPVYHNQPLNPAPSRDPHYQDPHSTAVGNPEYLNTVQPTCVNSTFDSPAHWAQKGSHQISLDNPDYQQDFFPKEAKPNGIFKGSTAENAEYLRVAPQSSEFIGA
Sequence of EGFR [d746-750] (P00533 other isoform, or with tags, fused parts or gaps del 1-667/del 746-750 limits assumed): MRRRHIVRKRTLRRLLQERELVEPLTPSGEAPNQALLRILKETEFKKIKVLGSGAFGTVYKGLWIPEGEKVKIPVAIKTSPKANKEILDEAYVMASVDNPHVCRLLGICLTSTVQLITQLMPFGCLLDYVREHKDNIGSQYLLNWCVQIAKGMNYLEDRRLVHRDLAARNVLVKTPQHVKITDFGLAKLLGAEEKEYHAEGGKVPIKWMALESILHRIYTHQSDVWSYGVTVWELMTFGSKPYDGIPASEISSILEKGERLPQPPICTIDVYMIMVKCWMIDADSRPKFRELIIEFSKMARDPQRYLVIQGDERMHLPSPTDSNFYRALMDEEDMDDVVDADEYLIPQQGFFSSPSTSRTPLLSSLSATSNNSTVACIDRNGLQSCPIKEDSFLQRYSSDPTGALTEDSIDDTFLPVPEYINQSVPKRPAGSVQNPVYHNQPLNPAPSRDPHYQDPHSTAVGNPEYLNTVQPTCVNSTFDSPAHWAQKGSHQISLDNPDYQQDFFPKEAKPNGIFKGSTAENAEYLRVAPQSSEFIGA
Sequence of EGFR WT (P00533 25-1210): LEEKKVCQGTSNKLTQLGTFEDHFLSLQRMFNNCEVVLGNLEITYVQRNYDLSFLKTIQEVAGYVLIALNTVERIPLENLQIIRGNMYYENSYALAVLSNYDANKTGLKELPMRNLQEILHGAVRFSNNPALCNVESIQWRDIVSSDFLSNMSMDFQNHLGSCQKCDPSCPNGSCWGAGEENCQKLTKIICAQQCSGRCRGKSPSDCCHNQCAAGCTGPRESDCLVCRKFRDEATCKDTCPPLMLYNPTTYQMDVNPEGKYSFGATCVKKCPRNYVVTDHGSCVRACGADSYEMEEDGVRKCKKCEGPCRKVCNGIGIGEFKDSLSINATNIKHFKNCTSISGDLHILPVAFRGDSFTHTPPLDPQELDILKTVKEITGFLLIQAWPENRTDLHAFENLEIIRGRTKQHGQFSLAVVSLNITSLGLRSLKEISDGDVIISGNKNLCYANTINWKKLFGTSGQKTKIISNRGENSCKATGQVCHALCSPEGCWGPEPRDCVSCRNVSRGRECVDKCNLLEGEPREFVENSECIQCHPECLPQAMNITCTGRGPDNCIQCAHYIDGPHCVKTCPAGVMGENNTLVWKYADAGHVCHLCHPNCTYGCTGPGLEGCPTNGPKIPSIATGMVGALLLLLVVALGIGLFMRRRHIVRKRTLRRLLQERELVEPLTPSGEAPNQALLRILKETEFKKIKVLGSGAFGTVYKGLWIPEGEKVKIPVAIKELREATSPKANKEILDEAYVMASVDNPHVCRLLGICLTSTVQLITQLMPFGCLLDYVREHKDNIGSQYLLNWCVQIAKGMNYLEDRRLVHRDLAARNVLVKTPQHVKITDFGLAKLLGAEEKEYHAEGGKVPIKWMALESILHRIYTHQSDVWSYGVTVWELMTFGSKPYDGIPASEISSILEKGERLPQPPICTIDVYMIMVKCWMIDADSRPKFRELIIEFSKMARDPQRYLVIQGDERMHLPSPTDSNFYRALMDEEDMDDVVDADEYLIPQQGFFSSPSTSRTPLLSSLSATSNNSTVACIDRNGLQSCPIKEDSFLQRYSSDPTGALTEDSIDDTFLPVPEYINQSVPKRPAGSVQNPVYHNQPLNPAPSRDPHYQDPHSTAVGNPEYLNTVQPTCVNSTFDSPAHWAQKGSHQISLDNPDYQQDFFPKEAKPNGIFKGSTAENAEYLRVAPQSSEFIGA

SMILES	IC50 (PC-9 (Δ19del) cells) [nM]	IC50 (A431 cells) [nM]	IC50 (EGFR WT) [nM]	IC50 (EGFR [d746-750]) [nM]	IC50 (EGFR [L858R]) [nM]
COc1cc2ncnc(Oc3cccc(Cl)c3)c2cc1N1CC2(CCN(C)CC2)OC1=O [Compound 16]	540	–	–	–	–
COc1cc2ncnc(Nc3cccc(Cl)c3F)c2cc1N1C[C@H](CN(C)C)OC1=O [Compound 18]	12.5	59	< 0.015	0.05	–
COC[C@@H]1CN(c2cc3c(Nc4cccc(Cl)c4F)ncnc3cc2OC)C(=O)O1 [Compound 23]	24	–	0.038	0.17	–
CCN1CC2(C1)CN(c1cc3c(Nc4cccc(Cl)c4F)ncnc3cc1OC)C(=O)O2 [Compound 25]	6.76	64	0.022	0.069	–
COc1cc2ncnc(Nc3cccc(Cl)c3F)c2cc1N1CC2(CN(C(C)C)C2)OC1=O [Compound 26]	7.2	98	–	–	–
COc1cc2ncnc(Oc3cccc(Cl)c3)c2cc1N1CC2(CN(C)C2)OC1=O [Compound 27]	84	–	–	–	–
COc1cc2ncnc(Nc3cccc(Cl)c3F)c2cc1N1CC2(CN(CCF)C2)OC1=O [Compound 29]	14.7	–	–	–	–
CN1CC2(C1)CN(c1cc3c(Nc4cccc(Cl)c4F)ncnc3cc1OC(F)F)C(=O)O2 [Compound 45]	8.86	–	–	–	–
COc1cc2ncnc(Nc3ccc(F)c(Cl)c3F)c2cc1N1CC2(CN(C)C2)OC1=O [Compound 49]	4.2	–	–	–	–
COc1cc2ncnc(Nc3ccc(F)c(Cl)c3)c2cc1N1CC2(CCN(C)CC2)OC1=O [Formate of compound 2]	165	–	–	16.5	48.1
COc1cc2ncnc(Nc3cccc(Cl)c3F)c2cc1N1CC2(CCN(C)CC2)OC1=O [Formate of compound 3]	3	96	–	0.02	0.1
COc1cc2ncnc(Nc3cccc(Cl)c3OC)c2cc1N1CC2(CCN(C)CC2)OC1=O [Formate of compound 4]	396	–	–	55.4	30.1
COc1cc2ncnc(Nc3cccc(Cl)c3F)c2cc1N1CC2(CCN(C(C)C)CC2)OC1=O [Formate of compound 5]	2.73	–	–	–	–
COc1cc2ncnc(Nc3ccc(Cl)c(Cl)c3F)c2cc1N1CC2(CCN(C)CC2)OC1=O [Formate of compound 6]	4.9	–	< 0.015	0.07	–
COc1cc2ncnc(Nc3ccc(F)c(Cl)c3F)c2cc1N1CC2(CCN(C)CC2)CC1=O [Formate of compound 10]	6.01	73	–	–	–
CN1CCC2(CC1)CN(c1ccc3ncnc(Nc4cccc(Cl)c4F)c3c1)C(=O)O2 [Formate of compound 12]	9.11	46	0.017	0.085	–
COc1cc2ncnc(Nc3cccc(Cl)c3F)c2cc1N1CC2(CN(C)C2)OC1=O [Formate of compound 13]	5.34	–	0.016	0.052	–
COc1cc2ncnc(Nc3cccc(Cl)c3F)c2cc1N1CC2(COC2)OC1=O [Formate of compound 15]	23	–	–	–	–
COc1cc2ncnc(Nc3cccc(Cl)c3F)c2cc1N1C(=O)OC2CN(C)CCC21 (stereo not shown) [Formate of compound 17]	29.4	–	–	–	–
COc1cc2ncnc(-n3ccc4c(Cl)cccc43)c2cc1N1CC2(CCN(C)CC2)OC1=O [Formate of compound 19]	1280	–	–	–	–
COc1cc2ncnc(Nc3cccc(Cl)c3F)c2cc1N1CC2(CCN(C)CC2C)OC1=O (stereo not shown) [Formate of compound 20]	2.17	–	–	–	–
CCC1CN(C)CCC12CN(c1cc3c(Nc4cccc(Cl)c4F)ncnc3cc1OC)C(=O)O2 (stereo not shown) [Formate of compound 21]	2.96	–	–	–	–
Cc1cc2ncnc(Nc3cccc(Cl)c3F)c2cc1N1CC2(CCN(C)CC2)OC1=O [Formate of compound 22]	41.4	–	–	–	–
COc1cc2ncnc(Nc3c(F)ccc(Cl)c3F)c2cc1N1CC2(CCN(C)CC2)OC1=O [Formate of compound 24]	7.53	–	–	–	–
COc1cc2ncnc(-c3cn(C)c4ccccc34)c2cc1N1CC2(CN(C)C2)OC1=O [Formate of compound 28]	250	–	–	–	–
CC(C)N1CC2(CN(c3ccc4ncnc(Nc5cccc(Cl)c5F)c4c3)C(=O)O2)C1 [Formate of compound 33]	–	–	0.114	0.29	–
COc1cc2ncnc(Nc3ccc(Cl)cc3F)c2cc1N1CC2(CN(C)C2)OC1=O [Formate of compound 46]	29.8	–	–	–	–
COc1cc2ncnc(Nc3cccc(C)c3F)c2cc1N1CC2(CN(C)C2)OC1=O [Formate of compound 48]	8.55	–	–	–	–
CCCN1CC2(C1)CN(c1cc3c(Nc4cccc(Cl)c4F)ncnc3cc1OC)C(=O)O2 [Hydrochloride of compound 30]	11.2	71	0.021	0.052	–
COc1cc2ncnc(Nc3cccc(Cl)c3F)c2cc1N1CC2(CN(C3CC3)C2)OC1=O [Hydrochloride of compound 31]	15.3	–	–	–	–
